Source: US9579407B2, “Radiolabeled compounds and their use as radiotracers for quantitative imaging of phosphodiesterase (PDE10A) in mammals” (TAKEDA PHARMACEUTICAL COMPANY LIMITED, priority 2011, dated 2017)
Blank lines part the entries; values can stand above or below the compound they belong to.

Columns and labels:
[1] = Plasma metabolite analysis (parent fraction) during PET, [11C]compound; assay type: in vivo, rhesus monkeys; conditions: venous plasma, i.v.
Experimental: (§1) PET measurements were performed with the High Resolution Research Tomograph system (HRRT) (Siemens Molecular Imaging) using two rhesus monkeys with body weight of 4450 g and 5000 g. The monkeys were maintained under gas anesthesia of sevoflurane, oxygen, and medical air during PET measurements. 123-min dynamic brain PET data were acquired in List mode after 150 and 162 MBq of [^11C] compound of Example 2 and 159 and 162 MBq of [^11C] compound of Example 3 were injected intravenously. List-mode data were reconstructed using the ordinary Poisson-3D-ordered subset expectation maximization (OP-3D-OSEM) algorithm, with 10 iterations and 16 subsets including modelling of the point spread function (PSF). During PET acquisition, venous blood sampling was performed for the metabolite analysis.
(§2) Regions of interest (ROIs) for Caudate, Putamen, Nucleus Accumbens, Thalamus, Cerebellum, Frontal cortex, Temporal cortex, and whole brain were delineated on MRI/PET coregistered images using PMOD software (v3.1 PMOD Technologies Ltd. Zurich, Switzerland). Time activity curves were generated for these regions. The uptake was expressed as % ID (=total radioactivity in the brain (MBq)*100/injected radioactivity (MBq)) or % SUV (=radioactivity in the region (MBq/cc)*100/(injected radioactivity (MBq)/Body weight (g))). Metabolite fraction in the plasma was measured by a radio LC analysis. The results are shown in FIGS. 3, 4, 5, 6, 7, 8, 9 and 10.

PDE10A [2] = assay: PET specific radioligand binding in putamen (PDE10A rich region) vs cerebellum, [11C]compound; assay type: in vivo, rhesus monkeys; conditions: for ratio of the specific binding between the uptake in the target region and the uptake in the cerebellum: increased up to, during 123 min PET measurements; for time of peak of specific binding in Putamen: uptake of the putamen minus the cerebellum
Experimental: (§3) Since the compounds of the present invention show efficacy exhibition, they are useful as PET radioligands of PDE10A.
as §1, §2

[3] = PET brain uptake (whole brain and regional), [11C]compound; assay type: in vivo, rhesus monkeys; conditions: for regional brain uptake: regions of interest on MRI/PET coregistered images; for time at which whole brain uptake decreased to half / time at which whole brain uptake reached peak / whole brain uptake at the peak: i.v.; for time at which whole brain uptake reached peak: 123-min PET; for whole brain uptake at the peak: % ID = total radioactivity in the brain*100/injected radioactivity
Experimental: as §1
(§4) T1-weighted MR images were acquired with an MRI system GE 1.5 T Signa unit (Milwaukee, Wis., USA). The T1 sequence was a 3-D SPGR protocol with the following settings: repetition time (TR) 21 ms, flip angle 35°, FOV 12.8, matrix 256×256×128, 128×1.0 mm slices.
as §2

PDE10A [4] = assay: PET specific radioligand binding in putamen (PDE10A rich region) vs cerebellum, [18F]compound; assay type: in vivo, cynomolgus monkeys; conditions: for ratio of the specific binding between the uptake in the target region and the uptake in the cerebellum: increased up to; for time of peak of specific binding in Putamen: uptake of the putamen minus the cerebellum
Experimental: as §3
(§5) PET measurements were performed with the High Resolution Research Tomograph system (HRRT) (Siemens Molecular Imaging) using three cynomolgus monkeys with body weight of 3730 g to 4845 g. The monkeys were maintained under gas anesthesia of sevoflurane, oxygen, and medical air during PET measurements.
(§6) 180-min dynamic brain PET data were acquired in List mode after 148 and 157 MBq of [^18F]compound of Example 119 and 159 and 163 MBq of [^18F]compound of Example 120 were injected intravenously. List-mode data were reconstructed using the ordinary Poisson-3D-ordered subset expectation maximization (OP-3D-OSEM) algorithm, with 10 iterations and 16 subsets including modelling of the point spread function (PSF). During PET acquisition, venous blood sampling was performed for the metabolite analysis.
as §2, with “(v3.2PMOD” for “(v3.1 PMOD”, “13, 14, 15, 16, 17, 18, 19” for “3, 4, 5, 6, 7, 8, 9”, “20.” for “10.”

[5] = PET brain uptake (whole brain and regional), [18F]compound; assay type: in vivo, cynomolgus monkeys; conditions: for regional brain uptake: regions of interest on MRI/PET coregistered images; for time at which whole brain uptake decreased to half / time at which whole brain uptake reached peak / whole brain uptake at the peak: i.v.; for time at which whole brain uptake reached peak: 180-min PET; for whole brain uptake at the peak: % ID = total radioactivity in the brain*100/injected radioactivity
Experimental: as §5, §6, §4
as §2, with “(v3.2PMOD” for “(v3.1 PMOD”, “13, 14, 15, 16, 17, 18, 19” for “3, 4, 5, 6, 7, 8, 9”, “20.” for “10.”

[6] = Plasma metabolite analysis (parent fraction) during PET, [18F]compound; assay type: in vivo, cynomolgus monkeys; conditions: venous plasma, i.v.
Experimental: as §5, §6
as §2, with “(v3.2PMOD” for “(v3.1 PMOD”, “13, 14, 15, 16, 17, 18, 19” for “3, 4, 5, 6, 7, 8, 9”, “20.” for “10.”

[7] = test system: Human PDE1A, 2A3, 3A, 4D2, 5A1, 6AB, 7B, 8A1, 9A2, and 11A4 enzymes; assay: PDE family enzyme inhibition selectivity assay (SPA); assay type: biochemical; conditions: ratio of IC50 for each PDE other than PDE10A to IC50 for PDE10A
Experimental: The PDE10A IC50 is a measure of the ability of the test compound to inhibit the action of the PDE10A enzyme. To determine the selectivity of the test compounds for PDE10A, the IC50 of the compound was determined for PDEs 1-9, and 11.
Human PDE1A, 3A, 4D2, 5A1, 7B, 8A1, 9A2, and 11A4 enzymes were purchased from BPS Bioscience. Human PDE6AB enzyme was purchased from Scottish Biomedical. Human PDE2A3 was generated from Sf9 transfected with the full-length gene in house. PDE activities were measured using a SPA (Scintillation Proximity Assay) (PerkinElmer). To evaluate the inhibitory activity, 10 μL of serial diluted compounds were incubated with 20 μL of PDE enzyme in assay buffer (50 mM HEPES-NaOH, 8.3 mM MgCl2, 1.7 mM EGTA, 0.1% BSA (pH 7.4)) for 30 min. at room temperature. Final concentration of DMSO in the assay was 1% as compounds were tested in duplicate in 96-well half-area plates (Corning). To start the reaction, 10 μL of substrate [^3H] cGMP (PerkinElmer) for PDE1A, 2A3, 5A1, 6AB, 9A2, and 11A4 or [^3H] cAMP (PerkinElmer) for PDE3A, 4D2, 7B, and 8A1 was added for a final assay volume of 40 μL. After 60 min incubation at room temperature, yttrium SPA beads containing zinc sulphate were added (20 μL at 6 mg/mL) to terminate the PDE reaction. After being settled for 60 min., assay plates were counted in a scintillation counter (PerkinElmer) to allow calculation of inhibition rate. IC50 values were calculated on the basis of 0% control wells with DMSO and 100% control wells without enzyme. Selectivity was defined as the ratio of IC50 for each PDE other than PDE10A to IC50 for PDE10A.

Human PDE10A enzyme = Human PDE10A enzyme (Homo sapiens (Human), UniProt Q9Y233); assay: PDE10A enzyme inhibition (SPA, [3H]cGMP); assay type: biochemical; conditions: unlabeled compound
Chain of Human PDE10A enzyme (Q9Y233 267-1055): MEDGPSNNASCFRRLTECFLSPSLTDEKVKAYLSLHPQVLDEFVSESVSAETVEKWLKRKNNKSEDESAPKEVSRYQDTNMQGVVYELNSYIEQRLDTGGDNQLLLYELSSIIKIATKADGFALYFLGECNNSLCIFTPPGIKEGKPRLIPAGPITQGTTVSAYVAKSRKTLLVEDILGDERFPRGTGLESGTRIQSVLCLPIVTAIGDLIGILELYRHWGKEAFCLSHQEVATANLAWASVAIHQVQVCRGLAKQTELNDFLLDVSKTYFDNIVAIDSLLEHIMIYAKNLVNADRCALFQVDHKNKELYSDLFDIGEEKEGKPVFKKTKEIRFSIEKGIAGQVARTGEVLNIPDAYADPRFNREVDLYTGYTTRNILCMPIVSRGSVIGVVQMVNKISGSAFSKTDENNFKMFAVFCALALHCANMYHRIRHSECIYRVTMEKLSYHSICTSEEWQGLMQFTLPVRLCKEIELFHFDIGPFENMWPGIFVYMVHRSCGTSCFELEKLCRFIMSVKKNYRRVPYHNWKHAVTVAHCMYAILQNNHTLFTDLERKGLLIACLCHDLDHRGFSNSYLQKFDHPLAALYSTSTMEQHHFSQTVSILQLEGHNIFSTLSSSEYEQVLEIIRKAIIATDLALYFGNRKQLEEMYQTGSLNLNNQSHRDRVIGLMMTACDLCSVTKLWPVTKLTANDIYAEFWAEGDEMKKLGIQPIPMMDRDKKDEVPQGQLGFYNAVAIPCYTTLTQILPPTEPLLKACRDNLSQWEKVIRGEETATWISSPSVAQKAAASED
Experimental: Many of the compounds within the present invention had activity in inhibiting the human PDE10A enzyme in the aforementioned assay, generally with an […] of less than about 0.1 μM. Such a result is indicative of the intrinsic activity of the compounds in use as inhibitors of the PDE10A enzyme.
Human PDE10A enzyme was generated from Sf9 or COS-7 cells transfected with the full-length gene. Cloned enzyme was extracted from homogenized cell pellets. The extracted enzyme from sf9 cells was partially purified using His-tag affinity column. The enzyme was stored at −70° C. until use. PDE activity was measured using a SPA (Scintillation Proximity Assay) (GE Healthcare). To evaluate the inhibitory activity, 10 μL of serial diluted compounds were incubated with 20 μL of PDE enzyme in assay buffer (50 mM HEPES-NaOH, 8.3 mM MgCl2, 1.7 mM EGTA, 0.1% BSA (pH 7.4)) for 30 min. at room temperature. Final concentration of DMSO in the assay was 1% as compounds were tested in duplicate in 96-well half-area plates (Corning). To start the reaction, 10 μL of substrate [^3H] cGMP (25 or 50 nM; enclosed in SPA kits from GE Healthcare or purchased from PerkinElmer, respectively) was added for a final assay volume of 40 μL. After 60 min incubation at room temperature, yttrium SPA beads containing zinc sulphate were added (20 μL at 6 mg/mL) to terminate the PDE reaction. After being settled for 60 min., assay plates were counted in a scintillation counter (PerkinElmer) to allow calculation of inhibition rate. IC50 values were calculated on the basis of 0% control wells with DMSO and 100% control wells without enzyme.

Structure (SMILES): [11CH3]Oc1cn(-c2ccc(N3CC(F)(F)C3)cc2F)nc(-c2ccnn2-c2ccccc2)c1=O [Example 2]
fraction of parent compound ([1]; at 30 min): 70-76%
fraction of parent compound ([1]; at 90 min): 52-58%
ratio of the specific binding between the uptake in the target region and the uptake in the cerebellum (PDE10A [2]): 2.5-2.7
time of peak of specific binding in Putamen (PDE10A [2]): 48 min
regional brain uptake [3]: Putamen showed highest uptake, followed by Caudate, Nuclear Accumbens and Thalamus
time at which whole brain uptake decreased to half [3]: 60 to 66 min
time at which whole brain uptake reached peak [3]: 2.5 to 7.5 min
whole brain uptake at the peak [3]: 3.3-5.1 % ID

Structure (SMILES): [11CH3]Oc1cn(-c2ccc(C3CCOCC3)cc2F)nc(-c2ccnn2-c2ccccc2)c1=O [Example 3, 1-[2-Fluoro-4-(tetrahydro-2H-pyran-4-yl)phenyl]-5-[^11C]methoxy-3-(1-phenyl-1H-pyrazol-5-yl)pyridazin-4(1H)-one]
fraction of parent compound ([1]; at 30 min): 56-57%
fraction of parent compound ([1]; at 90 min): 45-53%
ratio of the specific binding between the uptake in the target region and the uptake in the cerebellum (PDE10A [2]): approximately six
time of peak of specific binding in Putamen (PDE10A [2]): 42 min
regional brain uptake [3]: Putamen showed highest uptake, followed by Caudate, Nuclear Accumbens and Thalamus
time at which whole brain uptake decreased to half [3]: 30 min
time at which whole brain uptake reached peak [3]: 2 min
whole brain uptake at the peak [3]: 3.3-4.1 % ID

Structure (SMILES): COc1cn(-c2ccc(N3CC(F)(F)C3)cc2F)nc(-c2ccnn2-c2ccccc2)c1=O [Reference Example 18, 1-[4-(3,3-Difluoroazetidin-1-yl)-2-fluorophenyl]-5-methoxy-3-(1-phenyl-1H-pyrazol-5-yl)pyridazin-4(1H)-one]
Selectivity over other PDEs [7]: >1000-fold
IC50 (Human PDE10A enzyme): < 1 nM

Second part, led by results:

time at which whole brain uptake decreased to half [5]: 23 min
time at which whole brain uptake reached peak [5]: 2.5 min
whole brain uptake at the peak [5]: 5.2-5.7 % ID
fraction of parent compound ([6]; at 60 min): 62-71%
fraction of parent compound ([6]; at 180 min): 60-63%
Structure (SMILES): [2H]C([2H])(F)Oc1cn(-c2ccc(C3CCOCC3)cc2F)nc(-c2ccnn2-c2ccccc2)c1=O [Example 119, 5-([^18F]fluoro-methyloxy-d2)-1-(2-fluoro-4-(tetrahydro-2H-pyran-4-yl)phenyl)-3-(1-phenyl-1H-pyrazol-5-yl)pyridazin-4(1H)-one]
ratio of the specific binding between the uptake in the target region and the uptake in the cerebellum (PDE10A [4]; during 47-65 min PET measurements): 3.0-3.9
time of peak of specific binding in Putamen (PDE10A [4]): 18.5 to 29 min
regional brain uptake [5]: Putamen showed highest uptake, followed by Caudate, Nuclear Accumbens and Thalamus

time at which whole brain uptake decreased to half [5]: 23 to 35 min
time at which whole brain uptake reached peak [5]: 2.5 to 4.5 min
whole brain uptake at the peak [5]: 3.6 % ID
fraction of parent compound ([6]; at 60 min): 64-74%
fraction of parent compound ([6]; at 180 min): 51-72%
Structure (SMILES): [2H]C([2H])(F)C([2H])([2H])Oc1cn(-c2ccc(C3CCOCC3)cc2F)nc(-c2ccnn2-c2ccccc2)c1=O [Example 120, 5-(2-[^18F]fluoro-ethyloxy-d4)-1-(2-fluoro-4-(tetrahydro-2H-pyran-4-yl)phenyl)-3-(1-phenyl-1H-pyrazol-5-yl)pyridazin-4(1H)-one]
ratio of the specific binding between the uptake in the target region and the uptake in the cerebellum (PDE10A [4]; during 65-75 min PET measurements): 1.5-1.9
time of peak of specific binding in Putamen (PDE10A [4]): 35 to 41 min
regional brain uptake [5]: Putamen showed highest uptake, followed by Caudate, Nuclear Accumbens and Thalamus

Selectivity over other PDEs [7]: >1000-fold
IC50 (Human PDE10A enzyme): < 1 nM
Structure (SMILES): COc1cn(-c2ccc(C3CCOCC3)cc2F)nc(-c2ccnn2-c2ccccc2)c1=O [Reference Example 16, 1-[2-Fluoro-4-(tetrahydro-2H-pyran-4-yl)phenyl]-5-methoxy-3-(1-phenyl-1H-pyrazol-5-yl)pyridazin-4(1H)-one]

Selectivity over other PDEs [7]: >1000-fold
IC50 (Human PDE10A enzyme): < 10 nM
Structure (SMILES): [2H]C([2H])(F)Oc1cn(-c2ccc(C3CCOCC3)cc2F)nc(-c2ccnn2-c2ccccc2)c1=O [Reference Example 122, 5-(Fluoromethoxy-d2)-1-{2-fluoro-4-(tetrahydro-2H-pyran-4-yl)phenyl}-3-(1-phenyl-1H-pyrazol-5-yl)pyridazin-4(1H)-one]

Selectivity over other PDEs [7]: >100-fold
IC50 (Human PDE10A enzyme): < 10 nM
Structure (SMILES): [2H]C([2H])(F)C([2H])([2H])Oc1cn(-c2ccc(C3CCOCC3)cc2F)nc(-c2ccnn2-c2ccccc2)c1=O [Reference Example 123, 5-(2-Fluoroethoxy-d4)-1-{2-fluoro-4-(tetrahydro-2H-pyran-4-yl)phenyl}-3-(1-phenyl-1H-pyrazol-5-yl)pyridazin-4(1H)-one]
